# Measurements as given in US9586903B2, “Isoquinoline derivatives” (Hoffmann-La Roche Inc., priority 2013, dated 2017).
# Tested on: human embryonic stem cell derived neural stem cells (NSCs)
# Test: Neural stem cell proliferation assay (neurogenesis assay, ATP/CellTiterGlo readout)
# Format: cell-based
# Details: 4 days incubation
# Procedure: Neural Stem Cell Proliferation Assay
# Neurogenic properties of small molecules are determined based on the proliferation of human embryonic stem cell derived neural stem cells (NSCs) which were derived via a dual smad inhibition as previously described (Chambers, S. M., et al., Highly efficient neural conversion of human ES and iPS cells by dual inhibition of SMAD signaling, Nature biotechnology, 2009. 27(3): p. 275-80.)
# Compounds respond is measured by the increase in cells based on ATP levels (Promega:CellTiterGlo®) after an incubation period of 4 days.
# NSCs are thawed and expanded over 3 passages. On the 14th day, NSCs are seeded in Polyornithin/Laminin coated 384 well plates at a cell density of 21′000 cells/cm^2 in a media volume of 38 μl.
# 4 hours after cell seeding, compound solutions are added at a volume of 2 μl. Stock solutions of the compounds (water, 5% DMSO) are diluted to obtain a dose response (11 points, dilution factor is 2), ranging from 8 μM to 8 nM. Controls are run to consistently determine the neurogenic properties of the cells:
# Negative (neutral) control is cell culture Media (final DMSO concentration: 0.25%).
# 1. cell culture Media+100 ng/ml FGF2 (final DMSO concentration: 0.1%)
# 2. cell culture Media+20 ng/ml EGF (final DMSO concentration: 0.1%)
# 3. cell culture Media+100 ng/ml Wnt3a (final DMSO concentration: 0.1%)
# After 4 days incubation at 37° C., 5% CO2, the amount of ATP per well is quantified. The ATP concentration is proportional to the cell number. ATP is quantified by using the Promega CellTiterGlo® kit. The CellTiterGlo® reagents contain a cell lysis buffer, a thermo stable luciferase (UltraGlo™ recombinant luciferase), magnesium and luciferin. Luciferin reacts with ATP producing oxyluciferin, AMP and light. The luminescence signal is proportional to the ATP content.
# The value of negative (neutral) control is determined for each assay plate by taking the average of 16 negative control wells. The neurogenic compound response is calculated for each compound as (compound/Negative Control)*100.
# The values of EC150 from the dose response curve are determined for each test compound. The EC150 is the compound concentration at which 150% activity of control (100%) is reached.
# [1] = Homo sapiens, Neural stem cell, 96 h, Table 1, novel compounds, concentration at which 150% activity of control (100%) is reached
smiles,measurement,setting,value
"O=C(NCc1ccccc1)c1ccc2cncc(-c3ccncc3)c2c1 [Example 1, N-Benzyl-4-(pyridin-4-yl)isoquinoline-6-carboxamide]",EC (150% of control),[1],0.07 µM
"O=C(NCc1ccccc1)c1ccc2cncc(-c3ccc(Cl)cc3)c2c1 [Example 2, N-benzyl-4-(4-chlorophenyl)isoquinoline-6-carboxamide]",EC (150% of control),[1],0.09 µM
"O=C(c1ccc2cncc(-c3ccc(Cl)cc3)c2c1)N1CCS(=O)(=O)CC1 [Example 3, [4-(4-Chloro-phenyl)-isoquinolin-6-yl]-(1,1-dioxo-thiomorpholin-4-yl)-methanone]",EC (150% of control),[1],0.16 µM
"CC(C)(C)CNC(=O)c1ccc2cncc(-c3ccc(Cl)cc3)c2c1 [Example 4, 4-(4-Chloro-phenyl)-isoquinoline-6-carboxylic acid (2,2-dimethyl-propyl)-amide]",EC (150% of control),[1],0.19 µM
"O=C(NC1CC1)c1ccc2cncc(-c3ccc(Cl)cc3)c2c1 [Example 5, 4-(4-Chlorophenyl)-N-cyclopropylisoquinoline-6-carboxamide]",EC (150% of control),[1],0.03 µM
"O=C(NCC1CC1)c1ccc2cncc(-c3ccc(Cl)cc3)c2c1 [Example 6, 4-(4-Chlorophenyl)-N-(cyclopropylmethyl)isoquinoline-6-carboxamide]",EC (150% of control),[1],0.19 µM
"CS(=O)(=O)CCNC(=O)c1ccc2cncc(-c3ccc(Cl)cc3)c2c1 [Example 7, 4-(4-Chlorophenyl)-N-(2-(methylsulfonyl)ethyl)isoquinoline-6-carboxamide]",EC (150% of control),[1],0.07 µM
"O=C(NCc1cccnc1)c1ccc2cncc(-c3ccc(Cl)cc3)c2c1 [Example 8, 4-(4-Chlorophenyl)-N-(pyridin-3-ylmethyl)isoquinoline-6-carboxamide]",EC (150% of control),[1],0.08 µM
"CS(=O)(=O)c1ccc(CNC(=O)c2ccc3cncc(-c4ccc(Cl)cc4)c3c2)cc1 [Example 9, 4-(4-chlorophenyl)-N-(4-(methylsulfonyl)benzyl)isoquinoline-6-carboxamide]",EC (150% of control),[1],0.85 µM
"COc1ccccc1CNC(=O)c1ccc2cncc(-c3ccc(Cl)cc3)c2c1 [Example 10, 4-(4-Chlorophenyl)-N-(2-methoxybenzyl)isoquinoline-6-carboxamide]",EC (150% of control),[1],0.09 µM
"O=C(NCc1ccccn1)c1ccc2cncc(-c3ccc(Cl)cc3)c2c1 [Example 11, 4-(4-Chlorophenyl)-N-(pyridin-2-ylmethyl)isoquinoline-6-carboxamide]",EC (150% of control),[1],0.09 µM
"CS(=O)(=O)c1cccc(CNC(=O)c2ccc3cncc(-c4ccc(Cl)cc4)c3c2)c1 [Example 12, 4-(4-Chlorophenyl)-N-(3-(methylsulfonyl)benzyl)isoquinoline-6-carboxamide]",EC (150% of control),[1],0.1 µM
"O=C(Nc1ccccc1)c1ccc2cncc(-c3ccc(Cl)cc3)c2c1 [Example 13, 4-(4-Chlorophenyl)-N-phenylisoquinoline-6-carboxamide]",EC (150% of control),[1],0.71 µM
"O=C(NCC(F)(F)F)c1ccc2cncc(-c3ccc(Cl)cc3)c2c1 [Example 14, 4-(4-Chlorophenyl)-N-(2,2,2-trifluoroethyl)isoquinoline-6-carboxamide]",EC (150% of control),[1],0.05 µM
"CC(C)NC(=O)c1ccc2cncc(-c3ccc(Cl)cc3)c2c1 [Example 15, 4-(4-Chlorophenyl)-N-isopropylisoquinoline-6-carboxamide]",EC (150% of control),[1],0.98 µM
"O=C(NC1CCOC1)c1ccc2cncc(-c3ccc(Cl)cc3)c2c1 (stereo not shown) [Example 16, 4-(4-Chlorophenyl)-N-(tetrahydrofuran-3-yl)isoquinoline-6-carboxamide]",EC (150% of control),[1],0.76 µM
"CC(C)(CO)NC(=O)c1ccc2cncc(-c3ccc(Cl)cc3)c2c1 [Example 17, 4-(4-Chlorophenyl)-N-(1-hydroxy-2-methylpropan-2-yl)isoquinoline-6-carboxamide]",EC (150% of control),[1],2.5 µM
"O=C(c1ccc2cncc(-c3ccc(Cl)cc3)c2c1)N1CCOCC1 [Example 18, (4-(4-Chlorophenyl)isoquinolin-6-yl)(morpholino)methanone]",EC (150% of control),[1],0.38 µM
"CN1CCN(C(=O)c2ccc3cncc(-c4ccc(Cl)cc4)c3c2)CC1 [Example 19, (4-(4-Chlorophenyl)isoquinolin-6-yl)(4-methylpiperazin-1-yl)methanone]",EC (150% of control),[1],0.11 µM
"CC1(CNC(=O)c2ccc3cncc(-c4ccc(Cl)cc4)c3c2)CCC(=O)N1 (stereo not shown) [Example 20, 4-(4-Chlorophenyl)-N-((2-methyl-5-oxopyrrolidin-2-yl)methyl)isoquinoline-6-carboxamide]",EC (150% of control),[1],0.18 µM
"CN(CC1CC1)C(=O)c1ccc2cncc(-c3ccc(Cl)cc3)c2c1 [Example 21, 4-(4-Chlorophenyl)-N-(cyclopropylmethyl)-N-methylisoquinoline-6-carboxamide]",EC (150% of control),[1],0.21 µM
"O=C(c1ccc2cncc(-c3ccc(Cl)cc3)c2c1)N1CCC(O)C1 (stereo not shown) [Example 22, (4-(4-Chlorophenyl)isoquinolin-6-yl)(3-hydroxypyrrolidin-1-yl)methanone]",EC (150% of control),[1],0.28 µM
"CC(C)(C)NC(=O)c1ccc2cncc(-c3ccc(Cl)cc3)c2c1 [Example 23, N-tert-Butyl-4-(4-chlorophenyl)isoquinoline-6-carboxamide]",EC (150% of control),[1],0.73 µM
"O=C(NCCC(F)(F)F)c1ccc2cncc(-c3ccc(Cl)cc3)c2c1 [Example 24, 4-(4-Chlorophenyl)-N-(3,3,3-trifluoropropyl)isoquinoline-6-carboxamide]",EC (150% of control),[1],0.06 µM
"CS(=O)(=O)NNC(=O)c1ccc2cncc(-c3ccc(Cl)cc3)c2c1 [Example 25, N′-(4-(4-Chlorophenyl)isoquinoline-6-carbonyl)methanesulfonohydrazide]",EC (150% of control),[1],0.02 µM
"Cn1cc(NC(=O)c2ccc3cncc(-c4ccc(Cl)cc4)c3c2)cn1 [Example 26, 4-(4-Chlorophenyl)-N-(1-methyl-1H-pyrazol-4-yl)isoquinoline-6-carboxamide]",EC (150% of control),[1],0.32 µM
"CC(NC(=O)c1ccc2cncc(-c3ccc(Cl)cc3)c2c1)c1cccc(S(C)(=O)=O)c1 (stereo not shown) [Example 27, 4-(4-Chlorophenyl)-N-(1-(3-(methylsulfonyl)phenyl)ethyl)isoquinoline-6-carboxamide]",EC (150% of control),[1],0.79 µM
"CN(NC(=O)c1ccc2cncc(-c3ccc(Cl)cc3)c2c1)S(C)(=O)=O [Example 28, N′-(4-(4-Chlorophenyl)isoquinoline-6-carbonyl)-N-methylmethanesulfonohydrazide]",EC (150% of control),[1],0.39 µM
"NC(=O)c1ccc2cncc(C3=CCOCC3)c2c1 [Example 29, 4-(3,6-Dihydro-2H-pyran-4-yl)isoquinoline-6-carboxamide]",EC (150% of control),[1],0.14 µM
"N#Cc1ccc(-c2cncc3ccc(C(N)=O)cc23)cc1 [Example 30, 4-(4-Cyanophenyl)isoquinoline-6-carboxamide]",EC (150% of control),[1],0.03 µM
"NC(=O)c1ccc2cncc(-c3ccc(Cl)cc3Cl)c2c1 [Example 31, 4-(2,4-Dichlorophenyl)isoquinoline-6-carboxamide]",EC (150% of control),[1],0.06 µM
"NC(=O)c1ccc2cncc(-c3ccc(Cl)nc3)c2c1 [Example 32, 4-(6-Chloropyridin-3-yl)isoquinoline-6-carboxamide]",EC (150% of control),[1],0.02 µM
"NC(=O)c1ccc2cncc(-c3ccc(Cl)cc3)c2c1 [Example 33, 4-(4-Chlorophenyl)isoquinoline-6-carboxamide]",EC (150% of control),"Table 2, known compounds",0.01 µM
"NC(=O)c1ccc2cncc(-c3ccc(C(F)(F)F)cc3)c2c1 [Example 34, 4-(4-(Trifluoromethyl)phenyl)isoquinoline-6-carboxamide]",EC (150% of control),"Table 2, known compounds",0.02 µM
